Source: patent US9578878B2, “Antimicrobial efficacy of an oregano oil and caprylic acid blend” (Kemin Industries, Inc., priority 2014, dated 2017)

What was measured:
[1] = test system: Candida albicans (ATCC #10231); assay: Microtiter assay, MIC to inhibit 90% growth; type: cell-based; details: 24 hours, n = 3
Experimental: (§1) For assays to find minimum inhibitory concentrations, all treatments were diluted in 10% DMSO and 0.5% Tween 80 to stabilize the samples.
(§2) Microorganisms Escherichia coli (ATCC #8739), Streptococcus sanguinis (ATCC #BAA-1455), Salmonella enteria subsp. enterica (ex Kauffmann and Edwards) Le Minor and Popoff serovar Typhimurium (ATCC #14028), Staphylococcus aureus (ATCC #6538), Pseudomonas aeruginosa (ATCC #9027), and Candida albicans (ATCC #10231) were obtained from a −80° C. internal stock culture. Aspergillus brasiliensis (ATCC #16404) was obtained from an internal stock solution culture stored at 4° C. E. coli, S. enterica S. aureus, and P. aeruginosa were grown in tryptic soy broth (TSB) and incubated at 37° C. for 24 h. S. sanguinis was grown in brain heart infusion broth (BHI). A. brasiliensis was plated on Sabourand dextrose agar (SDA) and incubated at 25° C. for 5-7 days. C. albicans was grown in Sabourand dextrose broth (SDB) and incubated at 25° C. for 48 h.
(§3) A. brasiliensis was harvested by adding 18 mL sterile saline to the plate and agitating the mold from the agar with a sterile inoculating loop. The inoculum was collected upon agitation. All suspended microbes were diluted with the same type of broth media used to grow each organism until an inoculum in the range of 10^6 CFU/mL was achieved. The inoculum concentration was determined by plate count method. Each strain was identified by plating on the appropriate growth media, E. coli, S. aureus, and P. aeruginosa on tryptic soy agar (Bacto, BD Sciences, Manassas, Va.) and C. albicans and A. brasiliensis on Sabrouand dextrose agar, to ensure there was no contamination of the inoculum.
(§4) Microtiter Assay. A microtiter assay was completed E. coli, S. aureus, P. aeruginosa, S. enteria, S. sanguinis, and C. albicans. Briefly, 10^6 cfu/ml preparations of each organism were made and enumerated using a Petroff-Hausser counting chamber. A 100 μl aliquot of the inoculums was dispensed into microtiter plate wells and a 100 μl aliquot of treatment was dispensed into the same wells. Two separate set of wells were prepared as positive and negative controls, with the positive wells containing 100 μl test organism in growth media and 100 μl sterile phosphate buffer and with the negative control wells containing 100 μl of the same growth media and 100 μl sterile phosphate buffer. The plates were incubated overnight at the appropriate temperature for each organism. A plate reader was used to track the kinetic growth curve using 405 nm and […]. The last time point at 24 hours was averaged and used to determine MIC90. Each treatment was conducted in triplicate wells.

[2] = test system: Escherichia coli (ATCC #8739); assay: Microtiter assay, MIC to inhibit 90% growth; type: cell-based; details: 24 hours, n = 3
Experimental: as §1, §2, §3, §4

Salmonella enterica = assay: Microtiter assay, MIC to inhibit 90% growth; type: cell-based; details: 24 hours, n = 3
Experimental: as §1, §2, §3, §4

[3] = test system: Staphylococcus aureus (ATCC #6538); assay: Microtiter assay, MIC to inhibit 90% growth; type: cell-based; details: 24 hours, n = 3
Experimental: as §1, §2, §3, §4

[4] = test system: Pseudomonas aeruginosa (ATCC #9027); assay: Microtiter assay, MIC to inhibit 90% growth; type: cell-based; details: 24 hours, n = 3
Experimental: as §1, §2, §3, §4

[5] = test system: Streptococcus sanguinis (ATCC #BAA-1455); assay: Microtiter assay, MIC to inhibit 90% growth; type: cell-based; details: 24 hours, n = 3
Experimental: as §1, §2, §3, §4

A. brasiliensis = assay: Poison agar assay; type: cell-based, Aspergillus brasiliensis
Experimental: as §2, §3
A poison agar assay was completed for A. brasiliensis. Potato dextrose agar was used as the plated medium. Inocula at 10^5 cfu/ml were prepared and counted using a Petroff-Hausser counting chamber. Each treatment was added directly into the control without DMSO and Tween 80 as used in the previous experiments. The diameter of no growth around a 6 mm blank disk after incubation at 25° C. for 72 hrs was compared to the untreated control.

## Cc1ccc(C(C)C)cc1O [Carvacrol, carvacrol]
[1]
  Minimum Inhibitory Concentration (MIC) to inhibit 90% growth, C. albicans: 0.10%
[2]
  Minimum Inhibitory Concentration (MIC) to inhibit 90% growth, E. coli: 0.10%
Salmonella enterica
  Minimum Inhibitory Concentration (MIC) to inhibit 90% growth, S. enterica: 0.05%
[3]
  Minimum Inhibitory Concentration (MIC) to inhibit 90% growth, S. aureus: 0.05%
[4]
  Minimum Inhibitory Concentration (MIC) to inhibit 90% growth, P. aeruginosa: >0.1%
[5]
  Minimum Inhibitory Concentration (MIC) to inhibit 90% growth, S. sanguinis: 0.05%
A. brasiliensis; 0.005% in agar
  % Inhibition from Control: 15.10%
  Diameter of Growth: 6.50 mm
A. brasiliensis; 0.010% in agar
  % Inhibition from Control: 64.70%
  Diameter of Growth: 2.70 mm
A. brasiliensis; 0.030% in agar
  % Inhibition from Control: 100.00%
  Diameter of Growth: 0.00 mm
A. brasiliensis; potato dextrose agar, 25° C., 72 hrs
  MIC90 in the poison agar assay: 0.03%
